Test results published in ChEMBL document CHEMBL4393714, “Multi-targeting protein-protein interaction inhibitors: Evolution of macrocyclic ligands with embedded carbohydrates (MECs) to improve selectivity” (Eur J Med Chem, 2019).

Experiments:
[1] = biological target: D(1A) dopamine receptor (Homo sapiens) (UniProt P21728); test: Displacement of [3H]SCH23390 from human recombinant D1 receptor at 10 uM measured after 60 mins by scintillation counter method relative to control
[2] = biological target: 5-hydroxytryptamine receptor 1A (Homo sapiens) (UniProt P08908); test: Displacement of [3H]-OH-DPAT from human recombinant 5-HT1A receptor at 10 uM measured after 60 mins by scintillation counter method relative to control
[3] = biological target: T1, Sodium-dependent serotonin transporter (Homo sapiens, UniProt P31645); test: Displacement of [3H] imipramine from human recombinant 5-HT transporter at 10 uM measured after 60 mins by scintillation counter method relative to control
[4] = biological target: Muscarinic acetylcholine receptor M1 (Homo sapiens) (UniProt P11229); test: Displacement of [3H]pirenzepine from human recombinant muscarinic 1 receptor at 10 uM measured after 60 mins by scintillation counter method relative to control
Sequence of Muscarinic acetylcholine receptor M1 (Homo sapiens) (P11229 whole entry): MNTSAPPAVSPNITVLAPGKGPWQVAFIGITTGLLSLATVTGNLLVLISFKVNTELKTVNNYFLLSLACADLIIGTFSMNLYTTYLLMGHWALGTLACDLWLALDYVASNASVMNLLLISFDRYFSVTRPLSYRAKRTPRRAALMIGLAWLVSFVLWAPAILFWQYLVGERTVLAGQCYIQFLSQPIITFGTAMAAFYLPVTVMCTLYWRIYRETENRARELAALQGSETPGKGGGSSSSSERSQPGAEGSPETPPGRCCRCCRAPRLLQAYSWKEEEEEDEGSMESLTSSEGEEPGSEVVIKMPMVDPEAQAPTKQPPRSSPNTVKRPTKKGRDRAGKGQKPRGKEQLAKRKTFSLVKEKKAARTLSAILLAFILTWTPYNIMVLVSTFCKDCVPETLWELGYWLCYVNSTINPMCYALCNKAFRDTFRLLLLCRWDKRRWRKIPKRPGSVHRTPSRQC

Substance-K receptor = biological target: T2, Substance-K receptor (Homo sapiens, UniProt P21452); test: Displacement of [125I]NKA from human recombinant NK2 receptor measured after 60 mins by scintillation counter method
T2 sequence (P21452 whole entry): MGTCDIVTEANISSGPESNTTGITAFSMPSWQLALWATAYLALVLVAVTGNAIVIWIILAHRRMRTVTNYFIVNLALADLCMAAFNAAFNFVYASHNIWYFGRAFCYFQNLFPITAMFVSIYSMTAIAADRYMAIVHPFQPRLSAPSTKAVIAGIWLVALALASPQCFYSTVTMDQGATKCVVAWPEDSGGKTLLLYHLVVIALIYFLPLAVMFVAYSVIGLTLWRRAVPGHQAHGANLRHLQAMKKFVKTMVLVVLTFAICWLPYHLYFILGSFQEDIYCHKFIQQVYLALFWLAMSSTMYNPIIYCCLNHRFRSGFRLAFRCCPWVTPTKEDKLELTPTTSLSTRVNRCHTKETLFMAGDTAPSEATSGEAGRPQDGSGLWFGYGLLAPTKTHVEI

[5] = biological target: Sodium-dependent dopamine transporter (Homo sapiens) (UniProt Q01959); test: Displacement of [3H] BTCP from human recombinant dopamine […] at 10 uM measured after 120 mins by scintillation counter method relative to control
Sequence of Sodium-dependent dopamine transporter (Homo sapiens) (Q01959 whole entry): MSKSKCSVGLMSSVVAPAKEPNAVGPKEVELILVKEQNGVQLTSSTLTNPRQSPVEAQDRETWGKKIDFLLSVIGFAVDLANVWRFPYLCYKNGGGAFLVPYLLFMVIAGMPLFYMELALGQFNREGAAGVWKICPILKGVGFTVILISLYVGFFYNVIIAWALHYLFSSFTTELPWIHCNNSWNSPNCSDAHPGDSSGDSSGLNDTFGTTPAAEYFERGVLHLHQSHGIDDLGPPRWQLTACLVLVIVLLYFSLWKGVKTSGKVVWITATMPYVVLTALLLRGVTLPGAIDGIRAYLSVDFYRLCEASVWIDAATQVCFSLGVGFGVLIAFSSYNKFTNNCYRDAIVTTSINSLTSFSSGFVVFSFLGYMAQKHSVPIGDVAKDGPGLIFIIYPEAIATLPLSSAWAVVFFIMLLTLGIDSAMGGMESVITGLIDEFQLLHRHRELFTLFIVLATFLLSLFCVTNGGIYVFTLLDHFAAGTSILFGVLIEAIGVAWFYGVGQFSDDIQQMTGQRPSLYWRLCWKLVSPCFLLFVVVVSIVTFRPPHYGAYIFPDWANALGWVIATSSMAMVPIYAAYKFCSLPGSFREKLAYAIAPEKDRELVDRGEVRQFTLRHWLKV

[6] = biological target: Melatonin receptor type 1A (Homo sapiens) (UniProt P48039); test: Displacement of [125I]2-iodomelatonin from human recombinant MT 1 receptor at 10 uM measured after 60 mins by scintillation counter method relative to control
Sequence of Melatonin receptor type 1A (Homo sapiens) (P48039 whole entry): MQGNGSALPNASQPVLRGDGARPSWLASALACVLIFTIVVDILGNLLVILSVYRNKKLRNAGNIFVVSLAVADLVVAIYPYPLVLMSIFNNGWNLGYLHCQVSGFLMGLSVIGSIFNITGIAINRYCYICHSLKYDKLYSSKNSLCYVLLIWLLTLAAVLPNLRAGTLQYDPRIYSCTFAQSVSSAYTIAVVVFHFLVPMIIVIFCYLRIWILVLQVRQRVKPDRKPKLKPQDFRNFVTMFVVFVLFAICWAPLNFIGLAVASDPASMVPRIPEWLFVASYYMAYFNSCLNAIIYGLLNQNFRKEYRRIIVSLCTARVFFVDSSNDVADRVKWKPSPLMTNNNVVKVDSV

Rattus norvegicus [7] = organism: Rattus norvegicus; test: Displacement of [3H] TBPS from rat GABA gated chloride channel at 10 uM measured after 120 mins by scintillation counter method relative to control
[8] = biological target: C-C chemokine receptor type 1 (Homo sapiens) (UniProt P32246); test: Displacement of [125I]MIP1-alpha from human recombinant CCR1 receptor at 10 uM measured after 120 mins by scintillation counter method relative to control
[9] = biological target: Cannabinoid receptor 1 (Homo sapiens) (UniProt P21554); test: Displacement of [3H]CP 55940 from human recombinant CB1 receptor at 10 uM measured after 120 mins by scintillation counter method relative to control
Sequence of Cannabinoid receptor 1 (Homo sapiens) (P21554 whole entry): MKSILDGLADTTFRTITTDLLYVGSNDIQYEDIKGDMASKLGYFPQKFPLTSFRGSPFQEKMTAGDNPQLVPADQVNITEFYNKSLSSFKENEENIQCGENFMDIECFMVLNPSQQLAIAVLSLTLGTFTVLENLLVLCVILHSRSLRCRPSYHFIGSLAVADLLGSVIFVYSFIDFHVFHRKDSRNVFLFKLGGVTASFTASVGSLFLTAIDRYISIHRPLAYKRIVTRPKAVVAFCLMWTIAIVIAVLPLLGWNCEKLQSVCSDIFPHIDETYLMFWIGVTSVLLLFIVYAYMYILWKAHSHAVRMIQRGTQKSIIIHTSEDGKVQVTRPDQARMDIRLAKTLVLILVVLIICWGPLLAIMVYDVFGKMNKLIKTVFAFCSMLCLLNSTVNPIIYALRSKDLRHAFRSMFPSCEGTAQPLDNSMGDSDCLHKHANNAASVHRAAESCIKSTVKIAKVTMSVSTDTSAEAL

[10] = biological target: T3, 5-hydroxytryptamine receptor 1A (Homo sapiens, UniProt P08908); test: Displacement of [3H]OH-DPAT from human recombinant 5-HT1A receptor measured after 60 mins by scintillation counter method
T3 sequence (P08908 whole entry): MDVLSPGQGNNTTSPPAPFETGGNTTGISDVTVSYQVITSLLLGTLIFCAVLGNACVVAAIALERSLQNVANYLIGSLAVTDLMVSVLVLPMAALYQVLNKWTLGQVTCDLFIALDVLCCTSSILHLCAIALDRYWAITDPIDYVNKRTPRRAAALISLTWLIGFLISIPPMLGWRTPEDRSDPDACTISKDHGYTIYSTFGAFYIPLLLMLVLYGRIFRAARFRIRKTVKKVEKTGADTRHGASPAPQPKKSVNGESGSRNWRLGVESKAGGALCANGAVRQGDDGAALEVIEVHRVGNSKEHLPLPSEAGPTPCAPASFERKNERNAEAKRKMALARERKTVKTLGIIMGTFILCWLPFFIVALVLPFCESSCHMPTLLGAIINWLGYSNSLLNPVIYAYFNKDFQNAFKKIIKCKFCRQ

[11] = biological target: 5-hydroxytryptamine receptor 1B (Homo sapiens) (UniProt P28222); test: Displacement of [3H] GR125743 from human recombinant 5-HT1B receptor at 10 uM measured after 60 mins by scintillation counter method relative to control
Sequence of 5-hydroxytryptamine receptor 1B (Homo sapiens) (P28222 whole entry): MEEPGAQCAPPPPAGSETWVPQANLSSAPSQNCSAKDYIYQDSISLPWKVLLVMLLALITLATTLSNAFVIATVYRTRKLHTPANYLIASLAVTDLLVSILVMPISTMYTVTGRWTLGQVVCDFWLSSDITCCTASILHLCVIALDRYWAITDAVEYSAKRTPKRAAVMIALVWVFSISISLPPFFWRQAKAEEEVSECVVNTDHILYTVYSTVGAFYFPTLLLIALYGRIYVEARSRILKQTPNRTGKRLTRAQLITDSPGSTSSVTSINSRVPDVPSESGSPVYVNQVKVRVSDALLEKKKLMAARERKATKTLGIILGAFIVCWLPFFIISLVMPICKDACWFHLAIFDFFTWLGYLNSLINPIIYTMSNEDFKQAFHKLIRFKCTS

[12] = biological target: Adenosine receptor A2a (Homo sapiens) (UniProt P29274); test: Displacement of [3H]CGS 21680 from human recombinant A2A receptor at 10 uM measured after 120 mins by scintillation counter method relative to control
Sequence of Adenosine receptor A2a (Homo sapiens) (P29274 whole entry): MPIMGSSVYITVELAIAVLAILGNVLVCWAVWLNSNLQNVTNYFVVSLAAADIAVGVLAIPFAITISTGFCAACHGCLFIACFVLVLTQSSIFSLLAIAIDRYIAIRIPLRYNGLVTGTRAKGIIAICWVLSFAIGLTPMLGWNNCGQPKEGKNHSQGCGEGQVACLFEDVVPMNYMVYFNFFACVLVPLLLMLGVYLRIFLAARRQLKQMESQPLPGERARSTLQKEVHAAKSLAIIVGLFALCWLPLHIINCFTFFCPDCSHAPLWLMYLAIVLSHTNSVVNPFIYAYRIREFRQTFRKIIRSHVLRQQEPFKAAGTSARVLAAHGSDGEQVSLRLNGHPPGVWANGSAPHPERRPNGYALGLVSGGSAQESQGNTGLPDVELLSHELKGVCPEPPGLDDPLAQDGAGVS

[13] = biological target: Vasoactive intestinal polypeptide receptor 1 (Homo sapiens) (UniProt P32241); test: Displacement of [125I] VIP from human recombinant VPAC1 receptor at 10 uM measured after 60 mins by scintillation counter method relative to control
[14] = Displacement of [3H] batrachotoxinin from rat sodium channel site 2 measured after 60 mins by scintillation counter method
[15] = biological target: C-X-C chemokine receptor type 2 (Homo sapiens) (UniProt P25025); test: Displacement of [125I]IL-8 from human recombinant CXCR2 receptor at 10 uM measured after 60 mins by scintillation counter method relative to control
[16] = biological target: 5-hydroxytryptamine receptor 2A (Homo sapiens, UniProt P28223); test: Displacement of [3H] ketanserin from human recombinant 5-HT2A receptor at 10 uM measured after 60 mins by scintillation counter method relative to control
[17] = biological target: Delta-type opioid receptor (Homo sapiens) (UniProt P41143); test: Displacement of [3H] DADLE from human delta opioid receptor at 10 uM measured after 60 mins by scintillation counter method relative to control
Sequence of Delta-type opioid receptor (Homo sapiens) (P41143 whole entry): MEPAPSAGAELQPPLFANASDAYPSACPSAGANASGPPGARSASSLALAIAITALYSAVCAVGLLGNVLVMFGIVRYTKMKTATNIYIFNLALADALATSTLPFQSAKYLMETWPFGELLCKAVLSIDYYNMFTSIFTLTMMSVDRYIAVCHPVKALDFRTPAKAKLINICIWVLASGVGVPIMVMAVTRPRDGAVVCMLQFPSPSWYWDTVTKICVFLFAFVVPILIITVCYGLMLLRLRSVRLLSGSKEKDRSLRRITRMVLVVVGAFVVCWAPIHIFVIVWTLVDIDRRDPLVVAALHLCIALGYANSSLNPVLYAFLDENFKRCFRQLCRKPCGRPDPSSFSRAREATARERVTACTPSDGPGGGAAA

[18] = biological target: T1, Sodium-dependent serotonin transporter; test: Displacement of [3H] imipramine from human recombinant 5-HT transporter measured after 60 mins by scintillation counter method
Target sequence in this assay (P31645 whole entry): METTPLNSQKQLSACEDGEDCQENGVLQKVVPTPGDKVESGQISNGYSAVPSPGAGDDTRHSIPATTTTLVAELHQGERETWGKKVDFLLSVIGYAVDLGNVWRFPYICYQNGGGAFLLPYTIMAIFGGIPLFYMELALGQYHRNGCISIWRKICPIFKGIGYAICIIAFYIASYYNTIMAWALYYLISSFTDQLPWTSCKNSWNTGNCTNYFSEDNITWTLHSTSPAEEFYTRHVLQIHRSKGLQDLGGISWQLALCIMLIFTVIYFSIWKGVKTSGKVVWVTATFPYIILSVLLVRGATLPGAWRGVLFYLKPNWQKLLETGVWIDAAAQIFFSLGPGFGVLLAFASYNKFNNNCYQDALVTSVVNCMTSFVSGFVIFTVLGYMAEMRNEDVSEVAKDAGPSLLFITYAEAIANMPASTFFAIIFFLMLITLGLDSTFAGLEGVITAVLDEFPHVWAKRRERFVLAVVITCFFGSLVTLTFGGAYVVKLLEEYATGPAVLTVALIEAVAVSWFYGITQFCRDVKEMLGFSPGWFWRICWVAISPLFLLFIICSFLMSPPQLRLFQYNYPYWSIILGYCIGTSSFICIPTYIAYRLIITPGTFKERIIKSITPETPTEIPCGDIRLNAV

Rattus norvegicus [19] = organism: Rattus norvegicus; test: Displacement of [125I]alpha dendrotoxin from rat potassium channel at 10 uM measured after 60 mins by scintillation counter method relative to control
[20] = biological target: Prostaglandin E2 receptor EP4 subtype (Homo sapiens) (UniProt P35408); test: Displacement of [3H]PGE2 from human recombinant EP4 receptor at 10 uM measured after 120 mins by scintillation counter method relative to control
Sequence of Prostaglandin E2 receptor EP4 subtype (Homo sapiens) (P35408 whole entry): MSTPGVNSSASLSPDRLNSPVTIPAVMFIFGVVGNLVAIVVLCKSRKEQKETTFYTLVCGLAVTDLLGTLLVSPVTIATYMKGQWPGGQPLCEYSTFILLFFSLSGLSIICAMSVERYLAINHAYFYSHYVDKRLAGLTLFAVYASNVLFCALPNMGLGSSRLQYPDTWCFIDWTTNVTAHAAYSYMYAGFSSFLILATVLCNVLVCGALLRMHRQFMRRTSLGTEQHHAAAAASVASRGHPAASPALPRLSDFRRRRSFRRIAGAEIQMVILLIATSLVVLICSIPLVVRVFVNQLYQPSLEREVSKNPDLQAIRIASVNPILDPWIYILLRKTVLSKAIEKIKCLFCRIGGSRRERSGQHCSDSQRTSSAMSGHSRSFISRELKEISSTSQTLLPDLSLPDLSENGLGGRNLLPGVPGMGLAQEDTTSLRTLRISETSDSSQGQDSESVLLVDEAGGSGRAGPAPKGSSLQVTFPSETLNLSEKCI

[21] = biological target: Sodium-dependent noradrenaline transporter (Homo sapiens) (UniProt P23975); test: Displacement of [3H] nisoxetine from human recombinant norepinephrine transporter at 10 uM measured after 120 mins by scintillation counter method relative to control
[22] = biological target: Adenosine receptor A1 (Homo sapiens) (UniProt P30542); test: Displacement of [3H]DPCPX from human recombinant A1 receptor at 10 uM measured after 60 mins by scintillation counter method relative to control
Sequence of Adenosine receptor A1 (Homo sapiens) (P30542 whole entry): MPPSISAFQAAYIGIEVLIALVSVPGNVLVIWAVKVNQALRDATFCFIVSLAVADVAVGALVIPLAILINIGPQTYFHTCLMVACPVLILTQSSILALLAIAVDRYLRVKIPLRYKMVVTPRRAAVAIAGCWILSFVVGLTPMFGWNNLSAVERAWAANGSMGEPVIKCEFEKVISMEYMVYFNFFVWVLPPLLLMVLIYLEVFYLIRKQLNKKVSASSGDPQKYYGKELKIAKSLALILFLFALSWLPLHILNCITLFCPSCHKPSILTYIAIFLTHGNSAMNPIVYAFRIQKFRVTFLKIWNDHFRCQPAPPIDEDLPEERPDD

Sequence of D(1A) dopamine receptor (Homo sapiens) (P21728 whole entry): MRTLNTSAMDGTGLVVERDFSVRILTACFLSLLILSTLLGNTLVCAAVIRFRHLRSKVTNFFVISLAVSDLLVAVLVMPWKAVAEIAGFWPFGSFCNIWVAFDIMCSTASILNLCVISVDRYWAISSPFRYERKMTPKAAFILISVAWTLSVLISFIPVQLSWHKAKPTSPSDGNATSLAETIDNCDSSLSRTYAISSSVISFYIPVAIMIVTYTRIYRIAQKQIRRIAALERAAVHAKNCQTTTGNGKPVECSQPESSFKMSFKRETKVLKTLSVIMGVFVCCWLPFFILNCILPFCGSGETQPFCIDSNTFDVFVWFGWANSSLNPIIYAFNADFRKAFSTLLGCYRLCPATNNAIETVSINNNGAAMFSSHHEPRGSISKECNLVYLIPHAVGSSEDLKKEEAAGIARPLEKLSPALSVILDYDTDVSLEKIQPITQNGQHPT

## CC(C)CCO[C@@H]1[C@H]2OC(C)(C)O[C@H]2[C@H]2Cn3cc(nn3)COCCCCCCN(CCc3ccc4ccccc4c3)CC[C@H]1O2
[1]
  inhibition: 21.5%
[2]
  inhibition: 90.2%
[3]
  inhibition: 68.3%
[4]
  inhibition: 31%
Substance-K receptor
  IC50: 260 nM
  Ki: 140 nM
[5]
  inhibition: 64.1%
[6]
  inhibition: 29.2%
Rattus norvegicus [7]
  inhibition: 62.4%
[8]
  inhibition: 35.2%
[9]
  inhibition: 33.8%
[10]
  IC50: 490 nM
  Ki: 310 nM
[11]
  inhibition: 19%
[12]
  inhibition: 14.6%
[13]
  Activity: 14.8%
[14]
  IC50: 120 nM
  Ki: 100 nM
[15]
  inhibition: 20.9%
[16]
  inhibition: 93.2%
[17]
  inhibition: 83.4%
[18]
  IC50: 7400 nM
  Ki: 3400 nM
Rattus norvegicus [19]
  inhibition: 13.4%
[20]
  inhibition: 29.9%
[21]
  inhibition: 55.7%
[22]
  inhibition: 19%
